Test results published in US20040110769A1, “Farnesyl protein transferase inhibitor combinations with antiestrogen agents” (priority 2003, published 2004).
Values joined by “and” are separate entries in the source; they are usually repeats but may differ in a detail not shown here. Identical values can stand only once.

Test system: MCF7 human breast carcinoma cells
Experiment: Anti-tumor activity in established MCF-7 human breast tumor xenografts in nude mice
Format: in vivo
Conditions: MCF-7 xenograft in female nude mice, individual animals showing regression
Protocol: A combination of a farnesyl transferase inhibitor, namely the compound identified as Compound 75 above (R115777), and an anti-estrogen agent, namely tamoxifen (TMX), was tested for anti-tumor activity in comparison with the activity of the individual components of the combination, as described below.
Female Nude-Homo NCRNU non-ovarectimized mice 8 weeks of age were fed ad libitum water and an irradiated standard rodent diet. Mice were housed in stable microisolators on a 12 hour light cycle at 21-22° C. and 40-60% humidity.
Mice were inoculated subcutaneously with 1×10^7 MCF7 human breast carcinoma cells in the flank. Tumors were monitored initially twice a week and then daily as neoplasms reached the desired size, approximately 100 mg. When the carcinomas reached a size between 62-144 mg in calculated tumor weight, the animals were pair matched into the various treatment groups (group mean tumor weights ranged from 83-85 mg).
Estimated tumor weight was calculated using the formula: [formula] […]
The tumor growth inhibition (TGI) endpoint was used in this study to assess the efficacy of the various treatments. The tumor burden endpoint was set at 1.0 g as measured by calliper. TGI values were determined on the last day of the study (Day 5), when all mice were under test, except those that had expired from treatment-related or procedural causes. […]

Row | SMILES | Regression in Individual Animals (magnitude of tumor regression expressed as % reduction from pretreatment tumor size) (R115777 100 mg/kg, orally qd to end) | Regression in Individual Animals (magnitude of tumor regression expressed as % reduction from pretreatment tumor size) (TMX 1 mg/kg, s.c.)
1 | Cn1cncc1C(N)(c1ccc(Cl)cc1)c1ccc2c(c1)c(-c1cccc(Cl)c1)cc(=O)n2C (single isomer, unassigned; (+)) [Compound R115777, (+)-6-[amino(4-chlorophenyl)(1-methyl-1H-imidazol-5-yl)methyl]-4-(3-chlorophenyl)-1-methyl-2(1H)-quinolinone] | 93% and 100% | –
2 | CC/C(=C(\c1ccccc1)c1ccc(OCCN(C)C)cc1)c1ccccc1 [TMX, tamoxifen] | – | 10% and 78% and 94% and 44% and 59% and 31%
